From patent US12391962B2, “Targeting peptide to deliver a compound to oocytes” (THE PENN STATE RESEARCH FOUNDATION, priority 2017, dated 2025)

Experiments:
B. tabaci ovaries = experiment: Validation of the BtKV ovary targeting ligand (epifluorescence of dissected ovaries); format: in vivo, Bemisia tabaci; conditions: ovaries dissected 24 hours post-injection; vs PBS-injected controls
Experimental: For initial experiments B. tabaci adults of unknown age and mating status were aspirated from the colony cage into 2-dram screw cap vials, placed in ice to anesthetize the insects, sexed, and transferred to a standard plain glass slide with double-sided tape on a chill table. For later experiments we established a synchronous colony so that we could control for the age of injected insects (see below). For localization of BtKV fusion protein into the embryos, female B. tabaci were injected in the abdomen with BtKV-mCherry fusion protein (3 mg/ml) or PBS control using quartz capillary needles. Samples were collected 24 hours post injection and ovaries dissected onto a concavity microscope slide with a glass coverslip and imaged by epifluorescence microscopy.
We therefore designed a new targeting peptide suitable for this insect species based on its endogenous vitellogenin protein (“BtKV”; […] (SEQ ID NO: 30)) (see methods). B. tabaci oocyte development is asynchronous with stage I, II, III, and IV at 11 days post eclosion or older^19 where oocytes are always developing. Developmental phase II oocytes have the highest amount of vitellogenin uptake via endocytosis and nutrient cord^19. After injection of BtKV-mCherry into reproductive adult B. tabaci females, ovaries were dissected after 24 hours and visualized for red fluorescence.

B. tabaci white gene = experiment: Knockout of the B. tabaci white gene by ReMOT Control (adult female injection); format: in vivo, Bemisia tabaci; conditions: BtKV as the targeting peptide
Experimental: The females were injected and placed on a piece of soybean leaflet in a petri dish with a moist paper towel wrapped around the stem and another paper towel on the bottom plate to prolong the life of the leaflet. Water and liquid fertilizer were added as needed. Females were removed from the leaflet 2 weeks post injection. The petri dishes were incubated at 28° C., 16L/8D cycle, in a humidified Heratherm IMH750-S reach-in chamber, and the progeny of injected females screened visually for altered eye color in nymphs or adults using an Olympus SZX7 stereomicroscope. Mutations in insects showing altered eye color were confirmed by PCR using PHIRE Tissue Direct PCR Master Mix (Thermo Fischer Scientific), the amplicon was cloned into pJET1.2, and clones were submitted for Sanger sequencing.
For proof of principle gene editing experiments, we chose the white gene, which is an ABC transporter protein responsible for transport of ommochrome pigments into the eyes.

With “KPYGVYKTMEDSV (listed as Bemisia tabaci) [BtKV]” the “fluorescent cargo in oocytes” value (B. tabaci ovaries) was “visible in dissected mature oocytes” and the “independent replicate injection experiments from which white-eye nymphal offspring were recovered” value (B. tabaci white gene) was 7 of 14.
